The record followed here is patent US11104676B2 (priority 2018, dated 2021).

Assay [1] concerns the target His-tagged recombinant human AXL cytoplasmic domain (Homo sapiens (Human), UniProt P30530). To be noted: read-out: AXL enzyme IC50.
Procedure: (§1) Compounds of Formula I were screened for their ability to inhibit AXL kinase using Invitrogen's LanthaScreen™ Eu Kinase Binding technology. […] After a 60-minute incubation at 22° C., the reaction was measured using a PerkinElmer EnVision multimode plate reader via TR-FRET dual wavelength detection, and the percent of control (POC) was calculated using a ratiometric emission factor. […] The POC values are fit to a 4 parameter logistic curve and the IC50 value is point where the curve crosses 50 POC.
The target of assay [2] is GST-tagged recombinant human TYRO3 kinase domain (Homo sapiens (Human), UniProt Q06418). To be noted: read-out: TYRO3 enzyme IC50.
The target in assay [3] is His-tagged recombinant human MER cytoplasmic domain (Homo sapiens (Human), UniProt Q12866). To be noted: read-out: MER enzyme IC50.
Procedure: as §1

The structures appear in SMILES notation.

Chain of GST-tagged recombinant human TYRO3 kinase domain (Q06418 518-790): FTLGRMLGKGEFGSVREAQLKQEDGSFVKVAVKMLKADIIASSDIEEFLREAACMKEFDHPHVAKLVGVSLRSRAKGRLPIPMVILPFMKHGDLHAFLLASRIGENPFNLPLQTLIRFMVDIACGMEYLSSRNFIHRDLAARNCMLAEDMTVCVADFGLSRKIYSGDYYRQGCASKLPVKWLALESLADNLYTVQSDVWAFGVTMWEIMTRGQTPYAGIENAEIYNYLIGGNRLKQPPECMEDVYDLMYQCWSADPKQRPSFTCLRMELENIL
Chain of His-tagged recombinant human MER cytoplasmic domain (Q12866 527-999): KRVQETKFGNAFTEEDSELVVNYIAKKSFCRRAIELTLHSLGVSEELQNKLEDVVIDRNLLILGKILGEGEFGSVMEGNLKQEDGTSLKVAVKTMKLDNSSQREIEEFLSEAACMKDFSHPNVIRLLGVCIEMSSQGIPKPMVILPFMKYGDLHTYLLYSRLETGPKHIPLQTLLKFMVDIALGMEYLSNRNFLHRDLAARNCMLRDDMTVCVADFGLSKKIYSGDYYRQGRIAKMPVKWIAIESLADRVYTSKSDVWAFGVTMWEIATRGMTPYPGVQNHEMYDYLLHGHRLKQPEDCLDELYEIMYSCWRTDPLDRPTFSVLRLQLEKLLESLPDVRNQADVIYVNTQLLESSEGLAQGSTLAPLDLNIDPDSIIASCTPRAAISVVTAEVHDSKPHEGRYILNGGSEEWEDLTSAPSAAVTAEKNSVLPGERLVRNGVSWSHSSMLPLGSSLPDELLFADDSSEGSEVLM
Chain of His-tagged recombinant human AXL cytoplasmic domain (P30530 473-894): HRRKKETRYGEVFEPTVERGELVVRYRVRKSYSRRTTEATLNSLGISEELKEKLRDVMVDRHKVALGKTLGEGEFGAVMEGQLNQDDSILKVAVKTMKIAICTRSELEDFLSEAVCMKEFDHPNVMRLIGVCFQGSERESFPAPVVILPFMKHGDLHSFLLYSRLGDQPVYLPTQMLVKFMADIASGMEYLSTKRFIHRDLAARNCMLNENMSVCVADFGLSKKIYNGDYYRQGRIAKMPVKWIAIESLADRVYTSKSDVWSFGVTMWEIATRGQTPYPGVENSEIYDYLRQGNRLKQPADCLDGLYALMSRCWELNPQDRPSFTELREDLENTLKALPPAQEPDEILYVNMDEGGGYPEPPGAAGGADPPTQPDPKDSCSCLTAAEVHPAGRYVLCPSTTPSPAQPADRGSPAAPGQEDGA

For orientation: IC50 means the point on the concentration scale where inhibition reaches its midpoint. Turning to `C[C@H](CO)Nc1n[nH]c2nccc(Oc3ccc(NC(=O)C4CC5(CC5)CN(c5ccc(F)cc5)C4=O)cc3F)c12` (stereo partly drawn) [Example 140, N-(3-fluoro-4-((3-(((R)-1-hydroxypropan-2-yl)amino)-1H-pyrazolo[3,4-b]pyridin-4-yl)oxy)phenyl)-5-(4-fluorophenyl)-6-oxo-5-azaspiro[2.5]octane-7-carboxamide], the IC50 in assay [1] worked out at 355 nM; in assay [2] it was 1000 nM; in assay [3], 161 nM.

In the case of `C[C@H](CO)Nc1n[nH]c2nccc(Oc3ccc(NC(=O)C4(C)CCCN(c5ccc(F)cc5)C4=O)cc3F)c12` (stereo partly drawn) [Example 141, N-(3-fluoro-4-((3-(((R)-1-hydroxypropan-2-yl)amino)-1H-pyrazolo[3,4-b]pyridin-4-yl)oxy)phenyl)-1-(4-fluorophenyl)-3-methyl-2-oxopiperidine-3-carboxamide], the IC50 in assay [1] was found to be 485 nM; in assay [2] it was 1000 nM; in assay [3], 178 nM.

As for `COC[C@@H](C)Nc1n[nH]c2nccc(Oc3ccc(NC(=O)c4cc(C(C)C)nn(-c5ccc(F)cc5)c4=O)cc3F)c12` [Example 175, (R)-N-(3-fluoro-4-((3-((1-methoxypropan-2-yl)amino)-1H-pyrazolo[3,4-b]pyridin-4-yl)oxy)phenyl)-2-(4-fluorophenyl)-6-isopropyl-3-oxo-2,3-dihydropyridazine-4-carboxamide], the IC50 in assay [2] came to 292 nM.

`COC[C@@H](C)Nc1n[nH]c2nccc(Oc3ccc(NC(=O)c4cc(C(C)C)nn(-c5ccc(F)cc5)c4=O)nc3)c12` [Example 176, (R)-2-(4-fluorophenyl)-6-isopropyl-N-(5-((3-((1-methoxypropan-2-yl)amino)-1H-pyrazolo[3,4-b]pyridin-4-yl)oxy)pyridin-2-yl)-3-oxo-2,3-dihydropyridazine-4-carboxamide]: in assay [2], the IC50 is 728 nM.

Consider `COC[C@@H](C)Nc1n[nH]c2nccc(Oc3ccc(NC(=O)c4cc(C5CC5)cn(-c5ccc(F)cc5)c4=O)nc3)c12` [Example 177, (R)-5-cyclopropyl-1-(4-fluorophenyl)-N-(5-((3-((1-methoxypropan-2-yl)amino)-1H-pyrazolo[3,4-b]pyridin-4-yl)oxy)pyridin-2-yl)-2-oxo-1,2-dihydropyridine-3-carboxamide], for which, in assay [2], the IC50 was determined as 106 nM.

On to `COC[C@@H](C)Nc1n[nH]c2nccc(Oc3ccc(NC(=O)c4cc(C)cn(-c5ccc(F)cc5)c4=O)nc3)c12` [Example 178, (R)-1-(4-fluorophenyl)-N-(5-((3-((1-methoxypropan-2-yl)amino)-1H-pyrazolo[3,4-b]pyridin-4-yl)oxy)pyridin-2-yl)-5-methyl-2-oxo-1,2-dihydropyridine-3-carboxamide], for which, in assay [2], the IC50 worked out at 439 nM.

Consider `CC(C)(O)C1(Nc2n[nH]c3nccc(Oc4ccc(NC(=O)c5ccnn(-c6ccc(F)cc6)c5=O)cc4F)c23)CCCC1` [Example 182, N-(3-fluoro-4-((3-((1-(2-hydroxypropan-2-yl)cyclopentyl)amino)-1H-pyrazolo[3,4-b]pyridin-4-yl)oxy)phenyl)-2-(4-fluorophenyl)-3-oxo-2,3-dihydropyridazine-4-carboxamide], for which the IC50 in assay [2] was 707 nM.
